US12193465B2, “Materials and methods for extending shelf-life of foods” (JP Laboratories, Inc., priority 2021, dated 2025)
Values joined by “and” are separate entries in the source; they are usually repeats but may differ in a detail not shown here. Equal entries are not always repeated. “Also recorded” adds a separate entry of the source.

Tests used:
[1] = Curdling / cream / solidification of milk
Excerpt: (§1) Most of the foods changed color or texture.

[2] = Color change / browning / yellowing of foods (keeping produce green longer); details: for Change in color and softness: after 70 days
Protocol: All studies were conducted at a room temperature of about 25° C. To determine the effectiveness of a shelf-life extender, a control sample which was untreated with any shelf-life extenders, was tested identical to the test samples. […] All studies in those Examples of Tables 1-6 were conducted in closed plastic or glass containers. Containers, such as plastic containers, without or with lids having holes can be used if it is advantageous to let excess moisture escape or to prevent condensation of moisture released by some produce.
Food exposed to preservatives or by a sachet was placed in typically polystyrene or acrylic containers depending upon the size and number of food items. Glass jars and bottles were also used. The containers were snap-closed or with a lid. The containers were purchased mainly from Amazon or Webstaurant.com store. When needed, plastic containers with holes or without lids were used.
For controlled exposure and a constant supply of a preservative to foods, sachets containing one or more drops of preservatives were used. Sachets were made by placing an appropriate amount of a preservative in a plastic bag containing a piece of paper and heat sealing the bag. The sachet bag materials used were Tyvek® for solid preservative, polyethylene, polyester and high barrier multilayer films were used for liquid preservatives. These bags were sealed with a heat sealer. The sachet was typically applied on one side of the container containing food.
A piece of paper napkin was taped inside a 100 microns thick polyethylene or polyester Ziploc bag. The size of the bag varied from ˜20 cm×30 cm to ˜60 cm×90 cm depended on the sample with sandwich bags up to gallon bags being exemplary. The paper napkin was wetted with 0.1-0.5 ml of a preservative or a mixture of preservatives. A tray of aluminum, stainless steel or glass containing the foods was placed inside the plastic (polyethylene, polyester and multilayer-laminated) bag and almost closed by locking the Ziploc. Air was blown with an air blower from the unclosed end until the bag was fully blown and then quickly closed tightly by locking the remaining Ziploc. If a preservative was a sublimable solid, it was placed in a petri dish and then placed inside the bag in the tray before blowing air. The exposure time was varied from five minutes to a day depending upon the food. […] The assembly was shaken periodically. After the predetermined time, the tray containing produce was removed from the bag, allowed to de-gas for 10-30 minutes in air and the produce was then placed in an appropriately sized container. Glass and stainless steel containers with lids were also often used.
A solution of one or more preservatives was prepared in a large (e.g., 2-10 liter) glass beaker or a jar. A sack containing the food was prepared by placing the food in a plastic mesh bag. The sack was placed in the solution of the preservative. A smaller glass beaker containing proper amount of water was place over the package to keep the sack soaked in the solution of the preservative during the treatment. The solution was stirred either with a plastic spatula or with a magnet over a magnetic stirrer. After treatment, the mesh sack was removed, the produce was washed in a tray with running water, strained and air dried at 30° C. in an air blowing oven for about 5-10 minutes, while shaking the tray or turning the food periodically followed by placing the sample in an appropriate container.
The food was placed in mesh trays and sprayed with an aqueous solution (1-10%) of a preservative while shaking the tray or turning the food. The solution was allowed to drain from the tray and the food was air dried in an air blowing oven at 30° C. for about 5-10 minutes, while shaking the tray or turning food periodically followed by placing the sample in an appropriate container.

[3] = system: parval, methi, coriander, radish, guar; assay: Shriveling / wilting / dehydration / becoming wet of produce
Excerpt: as §1
(§2) The assembly was shaken periodically.

[4] = Gas formation (gassed dome) of fresh juice; details: Example 65, Orange juice, 0.02 g, control 4 days
Excerpt: as §1

[5] = General shelf-life extension of foods (spoilage criteria of Example 9)
[6] = system: grains, legumes, potatoes, garlic; assay: Germination / sprouting of grains, legumes and tubers
Excerpt: These bags were sealed with a heat sealer.
as §2

[7] = system: yeast; assay: Rising of dough; details: Example 74; Freshly prepared dough for bread; 1% in 100 g flour
Excerpt: On a control sample of freshly prepared dough, rising could continuously be observed throughout the day.

With `C=CCN=C=S` [AI, allyl isothiocyanate] the “Spoilage Time - Sample” value ([1]; Example 16, Cream, Raw cow milk, 0.07 g, control 3 days) was 24 days, the “Spoilage Time - Sample” value ([1]; Example 17, Curdling, Milk (pasteurized, whole milk), 0.10 g, control 2 days) was 16 days and the “Spoilage Time - Sample” value ([1]; Example 18, Curdling, Milk & Yogurt (whole milk & yogurt) mix, 0.10 g, control 2 days) was 16 days. For the same compound, the “Spoilage Time - Sample” value ([1]; Example 18, Curdling, Milk & Yogurt (whole milk & yogurt) mix, 0.10 g, control 2 days, listed as allyl isothiocyanate) was over 16 days, the “Spoilage Time - Sample” value ([1]; Example 19, Curdling, Milk (pasteurized, whole milk), 0.05 g, control 2 days) was 28 days and the “Spoilage Time - Sample” value ([1]; Example 19, Curdling, Milk (pasteurized, whole milk), 0.05 g, control 2 days, listed as allyl isothiocyanate) was > 28 days and > 21 days. For the same compound, the “Spoilage Time - Sample” value ([2]; Example 11, Browning, Coriander, 0.25 hr P-E, control 11 days) was “significantly delayed”, the “Spoilage Time - Sample” value ([2]; Example 12, Color change, Paneer (Indian cottage cheese), Sachet, control 9 days) was 10+ days and the “Spoilage Time - Sample” value ([2]; Example 13, Color change, Red cabbage juice, 0.02 g, control 12 days) was 13 days. For the same compound, the “Spoilage Time - Sample” value ([2]; Example 14, Color change, Blackberry juice, 0.02 g, control 5 days) was 12 days, the “Spoilage Time - Sample” value ([2]; Example 15, Color change, Tindora, 2 hrs P-E, control 6 days) was 17 days and the “Spoilage Time - Sample” value ([2]; Example 15, Color change, Tindora, 2 hrs P-E, control 6 days, listed as allyl isothiocyanate) was “delay of ripening and turning red from green was achieved”. The Green-to-yellow color change ([2]; Example 30, fresh green chickpeas, sachet, control 7 days) was over 9 days, the “Change in color and softness” value ([2]; Example 48, puri) was “There was very little change in color and softness of puri even after 70 days. Other” and the “Change in color and softness” value ([2]; Example 53, millet bread) was “There was very little change in color and softness of millet bread even after 70 days”. For the same compound, the “Color change from green-to-yellow” value ([2]; Examples 25 & 27, broccoli, vapors, control 5 days) was over 16 days, the “Spoilage Time - Sample” value ([3]; Example 75, Shriveling, Parval, 0.5 hr P-E, control 4 days) was 4+ days and the “Spoilage Time - Sample” value ([3]; Example 76, Shriveling, Parval, 1 hr P-E, control 4 days) was 4+ days. The “Spoilage Time - Sample” value ([3]; Example 83, Wet, Methi (Indian fenugreek), 1 hr P-E, control 9 days) was 30 days, the “Spoilage Time - Sample” value ([3]; Example 83, Wet, Methi (Indian fenugreek), 1 hr P-E, control 9 days, listed as allyl isothiocyanate) was “remained fresh and green” and the “Crispness of treated guar” value ([3]; guar exposed to vapor, lost green color slightly) was “remained crisp”. For the same compound, the “Spoilage Time - Sample” value [4] was 12 days, the “Shelf-life of flowery vegetables” value ([5]; flowery vegetables) was “extended shelf-life” and the Shelf-life extension ([5]; tindora dipped in solution) was “demonstrated shelf-life extension”. For the same compound, the “Effectiveness as shelf-life extender” value ([5]; tofu) was “effective”, the “Effectiveness for controlling one or more spoilage criteria” value ([5]; variety of foods) was “effective to a greater or lesser extent” and the “Spoilage Time - Sample” value ([6]; Example 66, Germination, Mixed Legumes (T), 0.10 g, control 3 days) was 9 days. The “Spoilage Time - Sample” value ([6]; Example 67, Germination, Mixed Legumes, Sachet, control 4 days) was 21 days, the “Spoilage Time - Sample” value ([6]; Example 67, Germination, Mixed Legumes, Sachet, control 4 days, listed as allyl isothiocyanate) was over 21 days and the “Spoilage Time - Sample” value ([6]; Example 68, Germination, Mixed Legumes, Sachet, control 3 days) was 9 days. For the same compound, the “Spoilage Time - Sample” value ([6]; Example 69, Germination, Soft White Wheat, Sachet, control 4 days) was 21 days, the “Spoilage Time - Sample” value ([6]; Example 70, Germination, Soft White Wheat, 5 ml of 10% allyl isothiocyanate solution in water, control 4 days) was 21 days and the “Spoilage Time - Sample” value ([6]; Example 71, Germination, Unshelled Rice, Sachet, control 3 days) was 15 days. For the same compound, the “Spoilage Time - Sample” value ([6]; Example 79, Sprouting, Red Potatoes, 2 hrs P-E, control 9 days) was 16 days, the “Spoilage Time - Sample” value ([6]; Example 80, Sprouting, Mix of red, purple and yellow potatoes, 4 hrs P-E, control 22 days) was 46 days and the “Spoilage Time - Sample” value ([6]; Example 81, Sprouting, Fingerling Potatoes, 2 hrs P-E, control 37 days) was 59 days. The “Spoilage Time - Sample” value ([6]; Example 82, Sprouting, Sprouted Garlic, 0.5 hr P-E, control 4 days) was 4+ days, the “Spoilage Time - Sample” value ([6]; Example 82, Sprouting, Sprouted Garlic, 0.5 hr P-E, control 4 days, listed as allyl isothiocyanate) was “no further growth of sprouts” and the Germination and/or fungus ([6]; flooded shelled peanuts, a drop in flooded water, control 5 days) was over 8 days. For the same compound, the Sprouting ([6]; various types of potatoes, vapor or sachet, Examples 79-81) was “either prevented or significantly delayed” and the Rise of dough [7] was “did not rise; also recorded: allyl isothiocyanate is capable of killing yeast”.
